Patent US20060029690A1, “Buckwheat compound and method of obtaining the same for treatment of hyperglycemia” (priority 2004, published 2006)
Like-named read-outs stand apart in the source and are kept apart here.

Experiments:
alloxan diabetic mice [1] = assay: Serum SOD level of alloxan diabetic mice at day 19; format: in vivo; details: metformin 200 mg/kg, others 5000 mg/kg
Method: (§1) The animals were made diabetic by a single intravenous injection of 70 mg/kg alloxan into the tail vein. After a period of 4 days, the treated mice were fasted for 2 hours, then the blood sample was taken from the treated mice intravenously. The blood glucose concentration was determined using Glucose Oxidase Peroxidase method. The mice with the blood glucose concentration above 200 mg/dl were marked diabetic mice and were used for further experiments.
(§2) The mice were divided into 5 groups, each group having 9 mice.
(§3) Group 5 received reagent (3) at the dose of 5 g/kg (p.o.).
(§4) At day 7 and 14, measurements of blood glucose concentration were taken after fasting for 2.5 and 5 hours. The change of glucose concentration by percentage was compared against the control group. Blood triglyceride and cholesterol concentrations were tested at day 14 (enzymatic method). Glucose tolerance test (2.0 g/kg, p.o.) was conducted at day 19. First, the mice were fasted for half an hour before the administration of control and test substances. Two and half hours later, the mice received glucose at the dose of 2 g/kg, po. Blood samples were taken at 0, 30, 60, 120 minutes after administration of the glucose. Blood glucose concentration (mg/dl) of the mice were determined and the related measurements of Area Under the Curve (AUC) were estimated. […]

alloxan diabetic mice [2] = assay: Blood lipid level (cholesterol, triglyceride) of alloxan diabetic mice at day 14; format: in vivo; details: metformin 200 mg/kg, others 5000 mg/kg
Method: as §1, §2, §3, §4

STZ diabetic rats [3] = assay: Non-fasting blood glucose, serum SOD activity and catalase (CAT) activity in STZ diabetic rats at day 19; format: in vivo, rat; details: oral administration for 19 days
Method: (§5) The treatments were administered once every day.
At day 19, blood samples were taken, and blood glucose concentrations without fasting, the activities of SOD and catalase (CAT) levels were determined.

STZ diabetic rats [4] = assay: Glucose tolerance test and AUC in STZ diabetic rats (day 14 and day 21)
Method: (§7) Male rats (Sprague-Dwaley, male), weighing 120 to 140 g, were purchased from VTLF Experiment Animal Technology Center Company Ltd., Beijing P. R. China The animals were made diabetic by a single intraperitoneal injection of streptozocin (freshly prepared in 0.1 M citrate buffer (pH 4.5) at the dose of 58 mg/kg). After a period of 4 days, the treated rats were fasted for 2.5 hours, then blood samples were taken from the treated rats intravenously. Blood glucose concentrations were determined using the Glucose Oxidase Peroxidase method. The rats with blood glucose concentrations above 190 mg/dl were marked as diabetic rats and used for further experiments.
(§8) The rats were divided into 6 groups of 10 rats per group. The difference in the average blood glucose concentrations among the 6 groups was less than 10 mg/dl. Group 1 served as the negative control and received water. […] The remaining four groups received reagents (1) to (4) as listed in Section 1.3.1 above. Reagents (1) and (2) were administered at a dose of 4 g/kg, while (3) and (4) were administered at a dose of 5 g/kg. The treatments were administered once every day.
At day 14, glucose tolerance tests were conducted. The rats were fasted for 1 hour before receiving the reagents at dosages of 2.0 g/kg (p.o.). Blood samples were taken at 0, 30, 60, and 120 min after receiving the reagents. Blood glucose concentrations (mg/dl) were determined and the related AUC were calculated.
At day 21, glucose tolerance tests were conducted. The rats were fasted for 1 hour, then received their respective reagents at the dose of 5 g/kg (p.o.). 2.5 hours after administration of reagent the rats received glucose at a dose of 2 g/kg (p.o.). Blood samples were taken at 0, 30, and 120 minutes after glucose administration. Blood glucose concentrations (mg/dl) were determined and the related AUC were calculated.

[5] = Body weight of STZ diabetic rats after 9, 14 and 21 days; details: STZ diabetic rat; metformin 0.2 g/kg, flavonoids 4.0 g/kg, extracts 5.0 g/kg
Method: as §7, §8

STZ diabetic rats [6] = assay: Fasting blood glucose concentration in STZ diabetic rats after 7 days (Example 1); format: in vivo, rat; details: oral administration for 7 days, metformin 0.2 g/kg, extracts 5.0 g/kg
Method: as §5
At day 7, the rats in groups 1, 2 and 3 were fasted and blood samples were taken at 2.5 hours and 5 hours after fasting began. Blood glucose concentrations (mg/dl) in these samples were then determined.

STZ diabetic rats [7] = assay: Oral glucose tolerance test in STZ diabetic rats after 12 days (Example 2); format: in vivo, rat; details: 12 days oral, dosage 0.2 g/kg
Method: […] were divided according to the blood glucose concentration under fasting conditions.
The STZ diabetic rats were divided into 4 groups, each group having 10 rats.
At day 12, oral glucose tolerance tests (2.0 g/kg) were conducted. […] 1 hour later, the rats received glucose at the dose of 2 g/kg (p.o.). Blood samples were taken at 0, 30 and 120 min respectively.

alloxan diabetic mice [8] = assay: Glucose tolerance test and AUC in alloxan diabetic mice (day 19 and day 22); format: in vivo; details: for Blood glucose, glucose tolerance test, 0 min: metformin 200 mg/kg, others 5 g/kg
Method: as §1, §2, §3
(§6) At day 7 and 14, measurements of blood glucose concentration were taken after fasting for 2.5 and 5 hours. The change of glucose concentration by percentage was compared against the control group. Blood triglyceride and cholesterol concentrations were tested at day 14 (enzymatic method). Glucose tolerance test (2.0 g/kg, p.o.) was conducted at day 19. First, the mice were fasted for half an hour before the administration of control and test substances. Two and half hours later, the mice received glucose at the dose of 2 g/kg, po. Blood samples were taken at 0, 30, 60, 120 minutes after administration of the glucose. Blood glucose concentration (mg/dl) of the mice were determined and the related measurements of Area Under the Curve (AUC) were estimated. The serum superoxide dismutase (SOD) level of blood samples taken at 0 minute was tested. Glucose tolerance test was conducted again at day 22. The mice were fasted for 1 hour before administration. One and half hour after administration, the mice received glucose at the dose of 2 g/kg, po Blood samples were taken at 0, 30 60, 120 minutes.

STZ diabetic rats [9] = details: 7 days oral, dosage 0.2 g/kg
Method: The mice were divided according to the blood glucose concentration under fasting conditions. The difference between the average blood glucose concentrations of the 4 groups of rats was less than 10 mg/dl.
At day 7, fasting blood glucose concentration was tested after 2.5 and 5 hours of fasting. The change of glucose concentration by percentage was compared against the control group.

alloxan diabetic mice [10] = assay: Blood glucose level of alloxan diabetic mice at day 7 and 14; format: in vivo; details: metformin 200 mg/kg
Method: as §1, §2, §3, §6

[11] = oral administration for 14 days
[12] = oral administration for 21 days
[13] = day 19, glucose 2 g/kg p.o. 2.5 h after administration
[14] = day 22, glucose 2 g/kg p.o. 1.5 h after administration

CN(C)C(=N)N=C(N)N [Metformin, metformin]
Serum SOD (alloxan diabetic mice [1]): 78.3 ± 26.5 u/mg
Blood cholesterol (alloxan diabetic mice [2]): 159.8 ± 48.7 mg/dL
Blood triglyceride (alloxan diabetic mice [2]): 132.8 ± 34.2 mg/dL
CAT activity (STZ diabetic rats [3]): 64.6 ± 12.5 U/gHb
Serum SOD activity (STZ diabetic rats [3]): 164.8 ± 16.9 NU/ml
Non-fasting blood glucose concentration (STZ diabetic rats [3]; metformin 0.2 g/kg, flavonoids 4.0 g/kg, extracts 5.0 g/kg): 340.5 ± 40.7 mg/dL
AUC of blood glucose (STZ diabetic rats [4]; [11]): 652.5 ± 133.8 mg·h/dL
blood glucose concentration, glucose tolerance test, 30 min (STZ diabetic rats [4]; [11]): 356.2 ± 93.3 mg/dL
blood glucose concentration, glucose tolerance test, 60 min (STZ diabetic rats [4]; [11]): 320.9 ± 64.6 mg/dL
blood glucose concentration, glucose tolerance test, 120 min (STZ diabetic rats [4]; [11]): 296.6 ± 72.6 mg/dL
blood glucose concentration, glucose tolerance test, 0 min (STZ diabetic rats [4]; oral administration for 14 days, metformin 0.2 g/kg, flavonoids 4.0 g/kg, extracts 5.0 g/kg): 341.8 ± 44.8 mg/dL
AUC of blood glucose (STZ diabetic rats [4]; [12]): 645.4 ± 122.0 mg·h/dL
blood glucose concentration, oral glucose tolerance, 30 min (STZ diabetic rats [4]; [12]): 358.0 ± 77.3 mg/dL
blood glucose concentration, oral glucose tolerance, 120 min (STZ diabetic rats [4]; [12]): 279.8 ± 51.6 mg/dL
weight at day 9 [5]: 203.3 ± 22.3 g
weight at day 14 [5]: 200.4 ± 29.4 g
Fasting blood glucose concentration, 5.0 hr. (STZ diabetic rats [6]; flavonoids 4.0 g/kg): 185.6 ± 78.8 mg/dL
fasting blood glucose concentration, 2.5 hr. (STZ diabetic rats [6]; flavonoids A and B 4.0 g/kg): 261.1 ± 45.7 mg/dL
AUC (STZ diabetic rats [7]): 800.9 ± 103.2 mg·h/dL
Fasting blood glucose concentration, oral glucose tolerance, 0 min (STZ diabetic rats [7]): 398.4 ± 36.6 mg/dL
Fasting blood glucose concentration, oral glucose tolerance, 30 min (STZ diabetic rats [7]): 458.4 ± 59.7 mg/dL
Fasting blood glucose concentration, oral glucose tolerance, 120 min (STZ diabetic rats [7]): 323.9 ± 51.2 mg/dL
reduction of AUC by percentage (STZ diabetic rats [7]; versus control): (14.2) %
Blood glucose, glucose tolerance test, 30 min (alloxan diabetic mice [8]; [13]): 544.4 ± 45.3 mg/dL
Blood glucose, glucose tolerance test, 60 min (alloxan diabetic mice [8]; [13]): 512.0 ± 76.9 mg/dL
Blood glucose, glucose tolerance test, 120 min (alloxan diabetic mice [8]; [13]): 408.4 ± 71.3 mg/dL
Blood glucose, glucose tolerance test, 0 min (alloxan diabetic mice [8]; [13]): 346.8 ± 68.3 mg/dL
Blood glucose, glucose tolerance test, 30 min (alloxan diabetic mice [8]; [14]): 474.5 ± 74.4 mg/dL
Blood glucose, glucose tolerance test, 60 min (alloxan diabetic mice [8]; [14]): 450.7 ± 80.1 mg/dL
Blood glucose, glucose tolerance test, 120 min (alloxan diabetic mice [8]; [14]): 358.6 ± 88.3 mg/dL
Blood glucose, glucose tolerance test, 0 min (alloxan diabetic mice [8]; [14]): 377.6 ± 87.6 mg/dL
fasting blood glucose concentration, 2.5 hr. (STZ diabetic rats [9]): 357.2 ± 51.5 mg/dL
fasting blood glucose concentration, 5 hr. (STZ diabetic rats [9]): 288.9 ± 68.8 mg/dL
reduction of blood glucose concentration by percentage, 2.5 hr. (STZ diabetic rats [9]; versus control): (11.7) %
reduction of blood glucose concentration by percentage, 5 hr. (STZ diabetic rats [9]; versus control): (22.5) %
effective in lowering blood glucose concentration in alloxan diabetic mice (in words) (alloxan diabetic mice [10]; continuously for 7 and 14 days, extracts 5 g/kg): significant glucose-lowering effect
Blood glucose concentration at day 7, 2.5 hr after administering (alloxan diabetic mice [10]; day 7, 2.5 hr, p.o. once daily, extracts and flavonoid B 5000 mg/kg): 216.8 ± 78.2 mg/dL
Blood glucose concentration at day 7, 5 hr after administering (alloxan diabetic mice [10]; day 7, 5 hr, p.o. once daily, others 5000 mg/kg): 182.8 ± 88.1 mg/dL
Blood glucose concentration at day 14, 2.5 hr after administering (alloxan diabetic mice [10]; day 14, 2.5 hr, p.o. once daily, others 5000 mg/kg): 281.5 ± 60.9 mg/dL
Blood glucose concentration at day 14, 5 hr after administering (alloxan diabetic mice [10]; day 14, 5 hr, p.o. once daily, others 5000 mg/kg): 221.7 ± 65.9 mg/dL
blood glucose change by percentage, day 7, 2.5 hr (alloxan diabetic mice [10]; versus control group, day 7, 2.5 hr, others 5000 mg/kg): 34%
blood glucose change by percentage, day 7, 5 hr (alloxan diabetic mice [10]; versus control group, day 7, 5 hr, others 5000 mg/kg): 32.4%
blood glucose change by percentage, day 14, 2.5 hr (alloxan diabetic mice [10]; versus control group, day 14, 2.5 hr, others 5000 mg/kg): 21.2%
blood glucose change by percentage, day 14, 5 hr (alloxan diabetic mice [10]; versus control group, day 14, 5 hr, others 5000 mg/kg): 21.3%
